Data taken from US20230414554A1, “COMPOUNDS FOR TREATING HEPATOCELLULAR CARCINOMA” (SERVICIO ANDALUZ DE SALUD, priority 2020, published 2023).

Experiments:
THLE-2 cells = test: Cell proliferation/viability of cell line derived from normal hepatocytes; type: cell-based; conditions: after 72 h; pladienolide-B 10^−8 M, sorafenib 5 nM
Experimental: Cell lines and treatments HepG2, Hep3b, and SNU-387 (HB-8065) cell lines were purchased from ATCC (Manassas, USA) and cultured as recommended. The cells were kept at 37° C. and 5% CO2, and periodically validated by means of STR analysis (GenePrint, Promega, Barcelona, Spain) and analyzed to detect mycoplasma contamination. THLE-2 cells were cultured according to the manufacturer's instructions. […] Positive controls [IGF-1 (10^−6M)] and negative controls [Paclitaxel (10^−7M)] were used.
The determination of cell proliferation, migration, apoptosis, clone and tumorsphere formation was performed as published previously.

[1] = test system: Hep3b-induced xenograft tumors; test: Hep3b xenograft model, tumor growth and necrosis; type: in vivo, nude mice; conditions: sorafenib 30 mg/kg in drinking water for 3 days; histopathology vs vehicle
Experimental: For in vitro and in vivo administrations, pladienolide-B (Santa Cruz, Heidelberg, Germany) was resuspended in DMSO (Sigma-Aldrich, Madrid, Spain). For in vitro administration, sorafenib (LC Laboratories, Woburn, USA) was dissolved in DMSO. […] For in vivo tests, sorafenib was dissolved in Cremophor EL/ethanol (50:50).
Experiments with xenograft mice were conducted in accordance with the European Animal Care Regulations under the approval of the university/regional government research ethics committees. 5×10^6 Hep3b cells (n=16 mice; n=32 tumors) in 50 μl of BME (Trevigen, Gaithersburg, MD) were subcutaneously grafted on both flanks of eight-week-old male Fox1nu/Foxn1nu nude mice (Janvier Labs, Le Genest-Saint-Isle, France). Tumor growth was monitored twice a week for 2 months by means of using a digital caliper. In the third week after grafting, when tumors were visible, the mice were treated with vehicle, pladienolide B, sorafenib, or the combination thereof (n=4 mice/treatment; n=8 tumors/treatment). Sorafenib (30 mg/kg) was administered dissolved in drinking water for 3 days; whereas the water of the remaining mice was treated with cremophor/ethanol vehicle. Pladienolide-B (10^−8M) was injected intratumorally on the second day of treatment with sorafenib. […] Tumor necrosis was evaluated after hematoxylin and eosin staining by expert pathologists.

CNC(=O)c1cc(Oc2ccc(NC(=O)Nc3ccc(Cl)c(C(F)(F)F)c3)cc2)ccn1 [sorafenib, reference compound]
viability of THLE-2 cells (THLE-2 cells): significantly reduced same | tumor necrosis [1]: greater necrosis than tumors treated with vehicle
